In patent US20250213474A1, “COMPOSITIONS AND METHODS FOR METAL CONTAINING FORMULATIONS CAPABLE OF MODULATING IMMUNE RESPONSE” (The Regents of the University of Michigan, priority 2021, published 2025):

How the values were obtained:
[1] = Safety of CMP-14:0 PA in VX2 tumor bearing rabbits (body weight, AST, ALT); type: in vivo, New Zealand White rabbits; conditions: 1.5 mg IV on W0 and W1
Method: FIGS. 31A-31C: CMP-14:0 PA is safe in rabbits. (FIG. 31A) VX2 tumor tissues were cut into pieces and implanted within the muscle of the both hindlimbs on W-3.5. […] (FIG. 31B) Serum was collected on W2 for measurement of AST and ALT levels as indicators of liver function. (FIG. 31C) Body weight changes in VX2 tumor bearing rabbits were monitored over the two cycles of treatment.
New Zealand White rabbits were used for this study. All rabbits were housed individually in cages under constant 21° C. temperature and 12-h light/dark cycles. All animals were cared for following federal, state, and local guidelines. All animal experimental procedures performed were in accordance with and approved by the Institutional Animal Care & Use Committee (IACUC) at the University of Michigan, Ann Arbor and complied with the National Institutes of Health (NIH) Guidelines for the care and use of laboratory animals. For establishing VX2 squamous cell carcinoma in rabbits, 4 mm^3 fresh tumor tissues were cut into small pieces and resuspended in 1 mL PBS for intramuscular injections within the hindlimbs. Both hindlimbs were implanted with the tumor tissue suspension. […] In the antitumor efficacy study, two doses of CMP-14:0 PA and diABZi were given with one week interval and the rabbits were euthanized 1 week after the last dose for primary tumors and lung metastasis analysis. […]

[2] = tested on: B16F10 cells; test: B16F10 tumor model, CMP versus other STING-activating formulations; type: in vivo, C57BL/6 mice
Method: FIGS. 23A-P: Robust therapeutic effect of CMPCDA in multiple tumor models. (FIGS. 23A-23J) Therapeutic effect of CMPCDA was compared with other CDA formulations and other STING agonists in an established B16F10 tumor model. (FIGS. 23A-23E) Tumor-bearing C57BL/6 mice were treated with CMPCDA, CDA-Zn particle (CZPCDA), CDA liposome), ADU-S100, or diABZI (all 5 μg doses of STING agonists, I.T.) on the indicated time points (FIG. 23A). Shown are (FIG. 23B) the individual tumor growth, (FIG. 23C) representative photos of tumors, (FIG. 23D) average tumor growth and (FIG. 23E) survival. […] Data were analyzed by two-way ANOVA (FIG. 23D, FIG. 23I, FIG. 23P) with Bonferroni multiple comparisons post-test. Survival of (FIG. 23E, FIG. 23J, FIG. 23P) was analyzed by Kaplan-Meier survival analysis with log-rank (Mantel-Cox) test. *p and #p in (FIG. 23P) denote statistical significance relative to the untreated and CDA groups, respectively.
All animals were cared for following federal, state, and local guidelines. […] Tumor size and survival were monitored every 2-4 days. Tumor size was calculated based on equation: volume=length×width^2×0.5. […] At indicated time points, the cytokine levels in serum were measured by ELISA assay in the Cancer Center Immunology Core of the University of Michigan. The amount of tumor antigen-specific T cells among PBMC were analyzed using the IFN-γ ELISPOT assay. […]

[3] = tested on: VX2 squamous cell carcinoma; test: Rabbit VX2 squamous cell carcinoma model; type: in vivo, New Zealand White rabbits; conditions: IV on W0 and W1; CMP-14:0 PA 0.5 mg, diABZi 1.5 mg; versus non-treated rabbits
Method: FIGS. 32A-E: CMP-14:0 PA exerts robust efficacy in rabbit VX2 squamous cell carcinoma model. (FIG. 32A) VX2 tumor tissues were cut into pieces and implanted within the muscle of the both hindlimbs on W-3.5. Rabbits were treated IV with 0.5 mg CMP-14:0 PA or 1.5 mg diABZi on W0 and W1. Shown are (FIG. 32B) total weight of primary tumors dissected from the muscle of the hindlimbs. (FIG. 32C) total volume of the primary tumor dissected from the muscle of the hindlimbs. (FIG. 32D) Measured tumor area ratio based on H&E staining slides of lung sections. (FIG. 32E) Representative images of the lungs.
New Zealand White rabbits were used for this study. All rabbits were housed individually in cages under constant 21° C. temperature and 12-h light/dark cycles. All animals were cared for following federal, state, and local guidelines. All animal experimental procedures performed were in accordance with and approved by the Institutional Animal Care & Use Committee (IACUC) at the University of Michigan, Ann Arbor and complied with the National Institutes of Health (NIH) Guidelines for the care and use of laboratory animals. For establishing VX2 squamous cell carcinoma in rabbits, 4 mm^3 fresh tumor tissues were cut into small pieces and resuspended in 1 mL PBS for intramuscular injections within the hindlimbs. Both hindlimbs were implanted with the tumor tissue suspension. […]

## diABZI
[1]
  rabbits with elevated level of AST and ALT: 1 out of 3
[2]; 5 μg doses of STING agonists, I.T.
  anti-tumor effect after I.T. therapy: comparable anti-tumor responses
[2]; 20 μg doses, I.V.
  anti-tumor effect after I.V. therapy: only minor anti-tumor effects
[3]
  weight and volume of primary tumors in the hindlimbs: did not decrease the weight or volume of primary tumors
